The text below walks through data of patent US20250059205A1, “Heterocyclic Compounds and Methods of Use” (AMGEN INC., priority 2021, published 2025).

In test [1] the test system is Phosphorylation of ERK1/2 in AsPC-1 cells. The experiment in a line: Phospho-ERK1/2 MSD Assay (AsPC-1 cells). Format: cell-based. The note with it: Homo sapiens, ASPC1, 2 h, 2 hours treatment, read-out: p-ERK (AsPC-1 cells) IC50. As for the experimental part: (§1) AsPC-1 (ATCC® CRL-1682™) cells were cultured in RPMI 1640 Medium (ThermoFisher Scientific 11875093) containing 10% fetal bovine serum (ThermoFisher Scientific 16000044) and 1× penicillin-streptomycin-glutamine (ThermoFisher Scientific 10378016). Sixteen hours prior to compound treatment, AsPC-1 cells were seeded in 96-well cell culture plates at a density of 25,000 cells/well and incubated at 37° C., 5% CO2. A compound dose-response titration was diluted in growth media, added to appropriate wells of a cell culture plate, and then incubated at 37° C., 5% CO2 for 2 hours. Following compound treatment, cells were washed with ice-cold Dulbecco's phosphate-buffered saline, no Ca^2+ or Mg^2+ (ThermoFisher Scientific 14190144), and then lysed in RIPA buffer (50 mM Tris-HCl pH 7.5, 1% Igepal, 0.5% sodium deoxycholate, 150 mM NaCl, and 0.5% sodium dodecyl sulfate) containing protease inhibitors (Roche 4693132001) and phosphatase inhibitors (Roche 4906837001). Phosphorylation of ERK1/2 in compound-treated lysates was assayed using Phospho-ERK1/2 Whole Cell Lysate kits (Meso Scale Discovery K151DWD) according to the manufacturer's protocol. Assay plates were read on a Meso Scale Discovery Sector Imager 6000, and data were analyzed using a 4-parameter logistic model to calculate IC50 values.

For test [2], the target named is GDP-bound KRAS protein (aa 1-169), containing both G12D and C118A amino acid substitutions (Homo sapiens, UniProt P01116, C118A/G12D). Nature of the test: KRAS G12D Coupled Nucleotide Exchange Assay. The test is classed as biochemical. As to conditions: 2 h compound pre-incubation. As for the experimental part: Following compound pre-incubation, purified SOS protein (aa 564-1049) and GTP (Roche 10106399001) were added to the assay wells and incubated for an additional 30 min. […] The assay plates were then read on a PerkinElmer EnVision Multilabel Reader, using AlphaScreen® technology, and data were analyzed using a 4-parameter logistic model to calculate IC50 values.
Sequence of GDP-bound KRAS protein (aa 1-169), containing both G12D and C118A amino acid substitutions (P01116 1-169 isoform P01116-2 G12D/C118A): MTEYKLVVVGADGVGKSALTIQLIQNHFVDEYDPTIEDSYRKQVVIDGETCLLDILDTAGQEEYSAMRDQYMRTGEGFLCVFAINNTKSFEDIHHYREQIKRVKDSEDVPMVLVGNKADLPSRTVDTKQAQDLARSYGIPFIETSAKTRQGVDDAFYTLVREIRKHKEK

The target in test [3] is His-tagged KRAS G12D protein (Homo sapiens, UniProt P01116, G12D). Nature of the test: KRAS G12D TR-FRET Assay. Format: binding. As for the experimental part:
Compounds of interest were prepared in a dose-response titration in DMSO, and 80 nL were added via Labcyte Echo to each well of a 384-well plate (Perkin Elmer 6008280). […] The plate was incubated for 30 minutes at room temperature. Biotinylated KRPep-2d substrate (Amgen) was diluted to 20 nM in Assay Buffer and 2 μL was added to all wells and incubated for 1 h at room temperature. Detection Reagent (0.4 nM LANCE Eu-W1024 Anti-6xHis (Perkin Elmer AD0401), 5 nM streptavidin-d2 (Cisbio 610SADLA)) was prepared in Assay Buffer, then 4 μL was added to the plate and incubated for 1 h at room temperature. Plates were read using PerkinElmer EnVision (ex: 320 nm, em1: 665 nm, em2: 615 nm) and em1/em2 data was used to generate curve fits using a 4-parameter logistic model to calculate IC50 values.

For test [4], the system named is Phosphorylation of ERK1/2 in A-427 cells. The experiment in a line: Phospho-ERK1/2 MSD Assay (A-427 cells). Format: cell-based. As to conditions: Homo sapiens, A-427, 2 h, 2 h treatment, read-out: p-ERK (A427 cells) IC50. As for the experimental part:
as §1, with “A-427” for “AsPC-1”, “HTB-53™)” for “CRL-1682™)”, “h.” for “hours.”

Sequence of His-tagged KRAS G12D protein (P01116 1-188 isoform P01116-2 G12D): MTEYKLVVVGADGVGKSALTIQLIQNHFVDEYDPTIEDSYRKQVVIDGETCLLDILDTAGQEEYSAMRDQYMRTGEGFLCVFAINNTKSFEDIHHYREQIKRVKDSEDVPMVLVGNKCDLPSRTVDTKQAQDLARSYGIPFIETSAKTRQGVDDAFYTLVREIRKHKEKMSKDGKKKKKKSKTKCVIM

In the case of `Oc1cc(-c2ccc3c(N4C[C@H]5C[C@@H](C4)N5)nc(OC[C@@]45CCCN4C[C@H](F)C5)nc3c2F)c2ccccc2c1` [Example 4, 4-(4-((1R,5S)-3,6-diazabicyclo[3.1. 1]heptan-3-yl)-8-fluoro-2-(((2R,7aS)-2-fluorotetrahydro-1H-pyrrolizin-7a(5H)-yl)methoxy)quinazolin-7-yl)naphthalen-2-ol], the half-inhibitory concentration (IC50) in test [1] stood at 1230 nM; in test [3] it was 5 nM; in test [4] it was 294 nM. In test [2], the “Avg 2 h Coupled Exchange IC50” value worked out at 7 nM.
As to `Cc1c(-c2cc(O)cc3ccccc23)ccc2c(N3C[C@H]4C[C@@H](C3)N4)nc(OC[C@@]34CCCN3C[C@H](F)C4)nc12` [Example 5, 4-(4-((1R,5S)-3,6-diazabicyclo[3.1. 1]heptan-3-yl)-2-(((2R,7aS)-2-fluorotetrahydro-1H-pyrrolizin-7a(5H)-yl)methoxy)-8-methylquinazolin-7-yl)naphthalen-2-ol], the values for the IC50 in test [1], in test [3] and in test [4] were 2970 nM, 43 nM and 2150 nM, respectively. The “Avg 2 h Coupled Exchange IC50” value in test [2] was 19 nM.
`CN1C[C@H](F)C[C@H]1COc1nc(N2[C@@H]3CNC[C@H]2COC3)c2ccc(-c3cc(O)cc4ccccc34)c(F)c2n1` [Example 6, 4-(4-((1R,5S)-3-oxa-7,9-diazabicyclo[3.3. 1]nonan-9-yl)-8-fluoro-2-(((2S,4R)-4-fluoro-1-methylpyrrolidin-2-yl)methoxy)quinazolin-7-yl)naphthalen-2-ol]: the IC50 in test [1] was found to be 5130 nM; in test [3] it was 49 nM; in test [4], 2310 nM. The “Avg 2 h Coupled Exchange IC50” value in test [2] is 22 nM.
In the same order, the values of `CN1C[C@H](F)C[C@H]1COc1nc(N2C[C@H]3C[C@@H](C2)N3)c2ccc(-c3cc(O)cc4ccccc34)c(F)c2n1` [Example 7, 4-(4-((1R,5S)-3,6-diazabicyclo[3.1. 1]heptan-3-yl)-8-fluoro-2-(((2S,4R)-4-fluoro-1-methylpyrrolidin-2-yl)methoxy)quinazolin-7-yl)naphthalen-2-ol] are 3300 nM, 75 nM, 3510 nM and 35 nM.
The corresponding values for `Oc1cc(-c2ccc3c(N4C[C@H]5C[C@@H](C4)N5)nc(OCC45CCCN4CC(F)(F)C5)nc3c2F)c2ccccc2c1` (stereo partly drawn) [Example 8, 4-(4-((1R,5S)-3,6-diazabicyclo[3.1. 1]heptan-3-yl)-2-((2,2-difluorotetrahydro-1H-pyrrolizin-7a(5H)-yl)methoxy)-8-fluoroquinazolin-7-yl)naphthalen-2-ol] are 6940 nM, 92 nM, 7880 nM and 87 nM.
As to `CN1CCC[C@H]1CCOc1nc(N2[C@@H]3CNC[C@H]2COC3)c2ccc(-c3cc(O)cc4ccccc34)c(F)c2n1` [Example 9, 4-(4-((1R,5S)-3-oxa-7,9-diazabicyclo[3.3. 1]nonan-9-yl)-8-fluoro-2-(2-((S)-1-methylpyrrolidin-2-yl)ethoxy)quinazolin-7-yl)naphthalen-2-ol], the IC50 was over 25000 nM in test [1], 456 nM in test [3] and over 25000 nM in test [4]. Further, the “Avg 2 h Coupled Exchange IC50” value in test [2] was 125 nM.
`Oc1cc(-c2ccc3c(N4[C@@H]5CNC[C@H]4COC5)nc(OCC45CCCN4CC(F)(F)C5)nc3c2F)c2ccccc2c1` (stereo partly drawn) [Example 10, 4-(4-((1R,5S)-3-oxa-7,9-diazabicyclo[3.3. 1]nonan-9-yl)-2-((2,2-difluorotetrahydro-1H-pyrrolizin-7a(5H)-yl)methoxy)-8-fluoroquinazolin-7-yl)naphthalen-2-ol]: the results for the half-inhibitory concentration (IC50) in test [1], in test [3] and in test [4] were 6270 nM, 106 nM and 5240 nM, respectively. Also, the “Avg 2 h Coupled Exchange IC50” value in test [2] is 132 nM.
Regarding `Oc1cc(-c2ccc3c(N4[C@@H]5CC[C@H]4CNC5)nc(OC[C@@]45CCCN4C[C@H](F)C5)nc3c2)c2ccccc2c1` [Example 11, 4-(4-((1R,5S)-3,8-diazabicyclo[3.2. 1]octan-8-yl)-2-(((2R,7aS)-2-fluorotetrahydro-1H-pyrrolizin-7a(5H)-yl)methoxy)quinazolin-7-yl)naphthalen-2-ol], the results for the IC50 in test [1], in test [3] and in test [4] were 1530 nM, 21 nM and 2510 nM, respectively. In test [2], the “Avg 2 h Coupled Exchange IC50” value amounted to 9 nM.
With `Oc1cc(-c2c(F)cc3c(N4C[C@H]5C[C@@H](C4)N5)nc(OC[C@@]45CCCN4C[C@H](F)C5)nc3c2F)c2ccccc2c1` [Example 13, 4-(4-((1R,5S)-3,6-diazabicyclo[3.1. 1]heptan-3-yl)-6,8-difluoro-2-(((2R,7aS)-2-fluorotetrahydro-1H-pyrrolizin-7a(5H)-yl)methoxy)quinazolin-7-yl)naphthalen-2-ol], the IC50 in test [1] was determined as 1730 nM; in test [3], 7 nM; in test [4], 238 nM. The “Avg 2 h Coupled Exchange IC50” value in test [2] amounted to 6 nM.
In the same order, the values of `Oc1cc(-c2c(F)cc3c(N4[C@@H]5CNC[C@H]4COC5)nc(OC[C@@]45CCCN4C[C@H](F)C5)nc3c2F)c2ccccc2c1` [Example 14, 4-(4-((1R,5S)-3-oxa-7,9-diazabicyclo[3.3.1]nonan-9-yl)-6,8-difluoro-2-(((2R,7aS)-2-fluorotetrahydro-1H-pyrrolizin-7a(5H)-yl)methoxy)quinazolin-7-yl)naphthalen-2-ol] are 762 nM, 9 nM, 274 nM and 8 nM.
For `Oc1cc(-c2c(F)cc3c(N4C[C@H]5COC[C@@H](C4)N5)nc(OC[C@@]45CCCN4C[C@H](F)C5)nc3c2F)c2ccccc2c1` [Example 15, 4-(4-((1R,5S)-3-oxa-7,9-diazabicyclo[3.3. 1]nonan-7-yl)-6,8-difluoro-2-(((2R,7aS)-2-fluorotetrahydro-1H-pyrrolizin-7a(5H)-yl)methoxy)quinazolin-7-yl)naphthalen-2-ol], the half-maximal inhibitory concentration (IC50) in test [1] was found to be 3220 nM; in test [3], 20 nM; in test [4], 1550 nM. In addition, the “Avg 2 h Coupled Exchange IC50” value in test [2] amounted to 14 nM.
The corresponding values for `CN1C[C@H](F)C[C@H]1COc1nc(N2[C@@H]3CC[C@H]2CNC3)c2cc(F)c(-c3cc(O)cc4ccccc34)c(F)c2n1` [Example 17, 4-(4-((1R,5S)-3,8-diazabicyclo[3.2. 1]octan-8-yl)-6,8-difluoro-2-(((2S,4R)-4-fluoro-1-methylpyrrolidin-2-yl)methoxy)quinazolin-7-yl)naphthalen-2-ol] are 949 nM, 26 nM, 1290 nM and 17 nM.
Take `CN1C[C@H](F)C[C@H]1COc1nc(N2[C@@H]3CNC[C@H]2COC3)c2cc(F)c(-c3cc(O)cc4ccccc34)c(F)c2n1` [Example 18, 4-(4-((1R,5S)-3-oxa-7,9-diazabicyclo[3.3. 1]nonan-9-yl)-6,8-difluoro-2-(((2S,4R)-4-fluoro-1-methylpyrrolidin-2-yl)methoxy)quinazolin-7-yl)naphthalen-2-ol]: the IC50 worked out at 2960 nM in test [1], 60 nM in test [3] and 1590 nM in test [4]. In addition, the “Avg 2 h Coupled Exchange IC50” value in test [2] is 18 nM.
